# Source: PubChem BioAssay AID1259407 (Chemical Carcinogenesis Research Information System (CCRIS), 2018)
# “Also recorded” adds a separate entry of the source. The source made the active and inactive calls. No rule for the calls is given here.
# Test system: CCRIS mutagenicity, Ames/micronucleus/aberration tests
# Experiment: CCRIS mutagenicity studies
smiles,measurement,setting,value
CCSC(C)CC1CC(=O)C(/C(CC)=N/OC/C=C/Cl)=C(O)C1 (stereo unspecified),mutagenic call,"End Point: In vitro chromosomal aberrations, Test System: Chinese hamster ovary (CHO) cells, Metabolic Activation: None",inactive; negative (purity 96.1%); also recorded: active; positive (structural changes; purity 81.4%)
same,mutagenic call,"End Point: In vitro chromosomal aberrations, Test System: Chinese hamster ovary (CHO) cells, Metabolic Activation: Rat, liver, S-9, Aroclor 1254",inactive; negative (purity 96.1%)
same,mutagenic call,"End Point: In vivo chromosomal aberrations, Test System: Bone marrow, Species: Rat, Strain/Sex: Sprague-Dawley/Female, Route: Gavage",inactive; negative (purity 83.3%)
same,mutagenic call,"End Point: In vivo chromosomal aberrations, Test System: Bone marrow, Species: Rat, Strain/Sex: Sprague-Dawley/Male, Route: Gavage",inactive; negative (purity 83.3%)
same,mutagenic call,"Test System: Ames Salmonella typhimurium, Strain/Indicator: TA98, Metabolic Activation: None, Method: Standard Plate",inactive; negative (purity 83.3%)
same,mutagenic call,"Test System: Ames Salmonella typhimurium, Strain/Indicator: TA98, Metabolic Activation: Rat, liver, S-9, Aroclor, Method: Standard Plate",inactive; negative (purity 83.3%)
same,mutagenic call,"Test System: Ames Salmonella typhimurium, Strain/Indicator: TA100, Metabolic Activation: None, Method: Standard Plate",inactive; negative (purity 83.3%)
same,mutagenic call,"Test System: Ames Salmonella typhimurium, Strain/Indicator: TA100, Metabolic Activation: Rat, liver, S-9, Aroclor, Method: Standard Plate",inactive; negative (purity 83.3%)
same,mutagenic call,"Test System: Ames Salmonella typhimurium, Strain/Indicator: TA1535, Metabolic Activation: None, Method: Standard Plate",inactive; negative (purity 83.3%)
same,mutagenic call,"Test System: Ames Salmonella typhimurium, Strain/Indicator: TA1535, Metabolic Activation: Rat, liver, S-9, Aroclor, Method: Standard Plate",inactive; negative (purity 83.3%)
same,mutagenic call,"Test System: Ames Salmonella typhimurium, Strain/Indicator: TA1537, Metabolic Activation: None, Method: Standard Plate",inactive; negative (purity 83.3%)
same,mutagenic call,"Test System: Ames Salmonella typhimurium, Strain/Indicator: TA1537, Metabolic Activation: Rat, liver, S-9, Aroclor, Method: Standard Plate",inactive; negative (purity 83.3%)
same,mutagenic call,"Test System: E. coli, Strain/Indicator: WP2uvrA, Metabolic Activation: None, Method: Standard Plate",inactive; negative (purity 83.3%)
same,mutagenic call,"Test System: E. coli, Strain/Indicator: WP2uvrA, Metabolic Activation: Rat, liver, S-9, Aroclor, Method: Standard Plate",inactive; negative (purity 83.3%)
same,mutagenic call,"Test System: UDS Mouse hepatocytes, Strain/Indicator: Thymidine incorporation, Metabolic Activation: Activation in whole animal, Method: Autoradiography",inactive; negative (purity 83.3%)
c1cscn1,mutagenic call,"Test System: AMES SALMONELLA TYPHIMURIUM, Strain/Indicator: TA98, Metabolic Activation: HAMSTER, LIVER, S-9, AROCLOR 1254, Method: STANDARD PLATE",inactive; negative
same,mutagenic call,"Test System: AMES SALMONELLA TYPHIMURIUM, Strain/Indicator: TA98, Metabolic Activation: RAT, LIVER, S-9, AROCLOR 1254, Method: STANDARD PLATE",inactive; negative
same,mutagenic call,"Test System: AMES SALMONELLA TYPHIMURIUM, Strain/Indicator: TA100, Metabolic Activation: HAMSTER, LIVER, S-9, AROCLOR 1254, Method: STANDARD PLATE",inactive; negative
same,mutagenic call,"Test System: AMES SALMONELLA TYPHIMURIUM, Strain/Indicator: TA1535, Metabolic Activation: HAMSTER, LIVER, S-9, AROCLOR 1254, Method: STANDARD PLATE",inactive; negative
same,mutagenic call,"Test System: AMES SALMONELLA TYPHIMURIUM, Strain/Indicator: TA1535, Metabolic Activation: NONE, Method: STANDARD PLATE",inactive; negative
same,mutagenic call,"Test System: AMES SALMONELLA TYPHIMURIUM, Strain/Indicator: TA1535, Metabolic Activation: RAT, LIVER, S-9, AROCLOR 1254, Method: STANDARD PLATE",inactive; negative
same,mutagenic call,"Test System: AMES SALMONELLA TYPHIMURIUM, Strain/Indicator: TA1537, Metabolic Activation: HAMSTER, LIVER, S-9, AROCLOR 1254, Method: STANDARD PLATE",inactive; negative
same,mutagenic call,"Test System: AMES SALMONELLA TYPHIMURIUM, Strain/Indicator: TA1537, Metabolic Activation: NONE, Method: STANDARD PLATE",inactive; negative
same,mutagenic call,"Test System: AMES SALMONELLA TYPHIMURIUM, Strain/Indicator: TA1537, Metabolic Activation: RAT, LIVER, S-9, AROCLOR 1254, Method: STANDARD PLATE",inactive; negative
same,mutagenic call,"Test System: AMES SALMONELLA TYPHIMURIUM, Strain/Indicator: TA1538, Metabolic Activation: HAMSTER, LIVER, S-9, AROCLOR 1254, Method: STANDARD PLATE",inactive; negative
same,mutagenic call,"Test System: AMES SALMONELLA TYPHIMURIUM, Strain/Indicator: TA1538, Metabolic Activation: NONE, Method: STANDARD PLATE",inactive; negative
same,mutagenic call,"Test System: AMES SALMONELLA TYPHIMURIUM, Strain/Indicator: TA1538, Metabolic Activation: RAT, LIVER, S-9, AROCLOR 1254, Method: STANDARD PLATE",inactive; negative
same,mutagenic call,"Test System: MOUSE LYMPHOMA, Strain/Indicator: L5178Y (TK+/TK-), Metabolic Activation: NONE, Method: SUSPENSION/PLATE",inactive; negative. reevaluation of results: negative
same,mutagenic call,"Test System: MOUSE LYMPHOMA, Strain/Indicator: L5178Y (TK+/TK-), Metabolic Activation: RAT, LIVER, S-9, AROCLOR 1254, Method: SUSPENSION/PLATE",inactive; negative. reevaluation of results: negative
CCN(CC)CCCN(c1ccccc1)C1Cc2ccccc2C1,mutagenic call,"Test System: AMES SALMONELLA TYPHIMURIUM, Strain/Indicator: TA98, Metabolic Activation: NONE, Method: PREINCUBATION",inactive; negative
same,mutagenic call,"Test System: AMES SALMONELLA TYPHIMURIUM, Strain/Indicator: TA98, Metabolic Activation: S-9, Method: PREINCUBATION",inactive; negative
same,mutagenic call,"Test System: AMES SALMONELLA TYPHIMURIUM, Strain/Indicator: TA100, Metabolic Activation: NONE, Method: PREINCUBATION",inactive; negative
same,mutagenic call,"Test System: AMES SALMONELLA TYPHIMURIUM, Strain/Indicator: TA100, Metabolic Activation: S-9, Method: PREINCUBATION",inactive; negative
same,mutagenic call,"Test System: AMES SALMONELLA TYPHIMURIUM, Strain/Indicator: TA1535, Metabolic Activation: NONE, Method: PREINCUBATION",inactive; negative
same,mutagenic call,"Test System: AMES SALMONELLA TYPHIMURIUM, Strain/Indicator: TA1535, Metabolic Activation: S-9, Method: PREINCUBATION",inactive; negative
same,mutagenic call,"Test System: AMES SALMONELLA TYPHIMURIUM, Strain/Indicator: TA1537, Metabolic Activation: NONE, Method: PREINCUBATION",inactive; negative
same,mutagenic call,"Test System: AMES SALMONELLA TYPHIMURIUM, Strain/Indicator: TA1537, Metabolic Activation: S-9, Method: PREINCUBATION",inactive; negative
same,mutagenic call,"Test System: AMES SALMONELLA TYPHIMURIUM, Strain/Indicator: TA1538, Metabolic Activation: NONE, Method: PREINCUBATION",inactive; negative
same,mutagenic call,"Test System: AMES SALMONELLA TYPHIMURIUM, Strain/Indicator: TA1538, Metabolic Activation: S-9, Method: PREINCUBATION",inactive; negative
same,mutagenic call,"Test System: E. COLI, Strain/Indicator: WP2 UVRA, Metabolic Activation: NONE, Method: PREINCUBATION",inactive; negative
same,mutagenic call,"Test System: E. COLI, Strain/Indicator: WP2 UVRA, Metabolic Activation: S-9, Method: PREINCUBATION",inactive; negative
